Reference: US20220211796A1, “PEPTIDE ANTIBIOTICS AND METHODS OF USE THEREOF” (priority 2019, published 2022)
In brackets after ≈: the same amount, converted by molar mass. Bridge positions count the residues as written; N and C are the ends. Square brackets hold non-standard residues; d marks the D form. Peptide text beside a SMILES is read from it.

What was measured:
Assay in all cases: microbe, parasite or virus in culture
B. subtilis ATCC 6633 = test system: B. subtilis ATCC 6633
Procedure: (§1) The L-peptides identified from five different phage display libraries were catalogued as described previously and selected sequences were synthesized in D-enantiomeric form by SPPS for further investigation in several biological assays.
(§2) MICs were determined according to a 96-well microdilution protocol outlined by the Clinical and Laboratory Standard Institute (CLSI) guideline with modifications for peptide antibiotics reported by Wiegand et al.^35 Two-fold serial peptide dilutions were performed to go from 2560 μg/ml to 5 μg/ml in0.2% BSA and 0.01% acetic acid buffer in 96-well polypropylene plates (COSTAR, #3879). Dilution of bacterial suspensions (1:200) of different bacterial strains that were grown until 0.5 McFarland standard were prepared to obtain a final inoculum concentration of 8×10^5 CFU/ml in Mueller-Hinton broth.

E. coli ATCC 25992 = test system: E. coli ATCC 25992
Procedure: as §1, §2

E. faecalis ATCC 29121 = test system: E. faecalis ATCC 29121
Procedure: as §1, §2

[1] = test system: Methicillin-resistant S. aureus (MRSA) ATCC 43300
Procedure: as §1, §2

S. aureus ATCC 6538 = test system: S. aureus ATCC 6538
Procedure: as §1, §2

[2] = test system: high level vancomycin resistant E. faecium (vanA) ATCC 51559
Procedure: as §1, §2

[3] = test system: low level vancomycin resistant E. faecium (vanB) ATCC 51299; settings: Table 5; low level vancomycin resistant E. faecium ATCC 51299
Procedure: as §1, §2

| SMILES | MIC B. subtilis (B. subtilis ATCC 6633; ATCC 6633) [µg/mL] | MIC E. coli (E. coli ATCC 25992; ATCC 25992) [µg/mL] | MIC E. faecalis (E. faecalis ATCC 29121; ATCC 29121) [µg/mL] | MIC MRSA ([1]; ATCC 43300) [µg/mL] | MIC S. aureus (S. aureus ATCC 6538; ATCC 6538) [µg/mL] | MIC VRE (vanA) ([2]; ATCC 51559) [µg/mL] | MIC VRE (vanB) [3] [µg/mL] | MIC B. subtilis (B. subtilis ATCC 6633; Table 5, B. subtilis ATCC 6633) [µg/mL] | MIC E. coli (E. coli ATCC 25992; Table 5, E. coli ATCC 25992) [µg/mL] | MIC E. faecalis (E. faecalis ATCC 29121; Table 5, E. faecalis ATCC 29121) [µg/mL] | MIC MRSA ([1]; Table 5, MRSA ATCC 43300) [µg/mL] | MIC S. aureus (S. aureus ATCC 6538; Table 5, S. aureus ATCC 6538) [µg/mL] | MIC VRE (vanA) ([2]; Table 5, high level vancomycin resistant E. faecium ATCC 51559) [µg/mL] |
| --- | --- | --- | --- | --- | --- | --- | --- | --- | --- | --- | --- | --- | --- |
| CC(C)C[C@@H](NC(=O)[C@@H](CC(N)=O)NC(=O)[C@@H](CO)NC(=O)CNC(=O)[C@H](N)C(C)C)C(=O)N[C@H](CCCNC(=N)N)C(=O)N[C@H](CC(C)C)C(=O)N[C@H](CC(C)C)C(=O)N[C@H](Cc1c[nH]cn1)C(=O)N[C@H](CCC(N)=O)C(=O)N[C@H](Cc1c[nH]c2ccccc12)C(=O)N[C@H](CCCCN)C(N)=O [P3, VGSNLRLLHQWK] (H-[dV]G[dS][dN][dL][dR][dL][dL][dH][dQ][dW][dK]-NH2) | 32 (≈ 22.1 µM) | >256 | 32 (≈ 22.1 µM) | 64 (≈ 44.1 µM) | 32 (≈ 22.1 µM) | >256 | >256 |  |  |  |  |  |  |
| CC(C)[C@@H](N)C(=O)N[C@H](Cc1c[nH]cn1)C(=O)N[C@H](Cc1c[nH]c2ccccc12)C(=O)N[C@H](CC(=O)O)C(=O)N[C@H](Cc1ccccc1)C(=O)N[C@H](CCCNC(=N)N)C(=O)N[C@H](CCC(N)=O)C(=O)N[C@H](Cc1c[nH]c2ccccc12)C(=O)N[C@H](Cc1c[nH]c2ccccc12)C(=O)N[C@H](CCC(N)=O)C(=O)N1CCC[C@@H]1C(=O)N[C@H](CO)C(N)=O [P4, VHWDFRQWWQPS] (H-[dV][dH][dW][dD][dF][dR][dQ][dW][dW][dQ][dP][dS]-NH2) | 32 (≈ 19.2 µM) | >256 | 32 (≈ 19.2 µM) | 64 (≈ 38.3 µM) | 32 (≈ 19.2 µM) | >256 | 128 (≈ 76.6 µM) |  |  |  |  |  |  |
| CC(C)C[C@@H](NC(=O)[C@H](NC(=O)[C@@H](Cc1ccc(O)cc1)NC(=O)[C@@H](CS)NC(=O)[C@@H](CS)NC(=O)[C@H](N)CCCCN)[C@H](C)O)C(=O)N1CCC[C@@H]1C(N)=O [P5, KCCYTLP] (H-[dK][dC][dC][dY][dT][dL][dP]-NH2) | 128 (≈ 155 µM) | >256 | >256 | >256 | 128 (≈ 155 µM) | >256 | >256 |  |  |  |  |  |  |
| CC(C)C[C@@H](NC(=O)[C@H](N)C(C)C)C(=O)N[C@@H](C(=O)N[C@H](CCCNC(=N)N)C(=O)N[C@H](CS)C(=O)N[C@H](CS)C(=O)NCC(N)=O)[C@H](C)O [P6, VLTRCCG] (H-[dV][dL][dT][dR][dC][dC]G-NH2) | 128 (≈ 171 µM) | >256 | >256 | >256 | 128 (≈ 171 µM) | >256 | >256 |  |  |  |  |  |  |
| CC(C)C[C@@H](NC(=O)[C@@H](Cc1ccccc1)NC(=O)CNC(=O)[C@H](N)[C@H](C)O)C(=O)N[C@@H](C(=O)N[C@H](CC(N)=O)C(=O)N[C@@H](C(N)=O)C(C)C)C(C)C [P7, TGFLVNV] (H-[dT]G[dF][dL][dV][dN][dV]-NH2) | 32 (≈ 42.8 µM) | >256 | >256 | >256 | 64 (≈ 85.6 µM) | >256 | >256 |  |  |  |  |  |  |
| CC[C@@H](C)[C@@H](NC(=O)[C@@H](Cc1ccc(O)cc1)NC(=O)[C@H](N)Cc1c[nH]cn1)C(=O)N[C@H](CC(=O)O)C(=O)N[C@H](Cc1ccccc1)C(=O)N[C@H](CCCNC(=N)N)C(=O)N[C@H](Cc1c[nH]c2ccccc12)C(N)=O [P8, HYIDFRW] (H-[dH][dY][dI][dD][dF][dR][dW]-NH2) | 32 (≈ 30.9 µM) | >256 | 64 (≈ 61.8 µM) | 64 (≈ 61.8 µM) |  | >256 | >256 |  |  |  |  |  |  |
| CC(C)C[C@H]1NC(=O)[C@H](N)CSSC[C@H](C(N)=O)NC(=O)[C@@H](Cc2c[nH]c3ccccc23)NC(=O)[C@@H](CCCCN)NC(=O)[C@@H](CCC(=O)O)NC(=O)CNC(=O)[C@@H](CC(C)C)NC(=O)[C@@H](CCCCN)NC1=O [P9, CLKLGEKWC] (H-[dC][dL][dK][dL]G[dE][dK][dW][dC]-NH2; disulfide 1-9) | 32 (≈ 29.7 µM) | >256 | 64 (≈ 59.5 µM) | 64 (≈ 59.5 µM) | 64 (≈ 59.5 µM) | >256 | >256 |  |  |  |  |  |  |
| CSCC[C@H]1NC(=O)[C@H]2CCCN2C(=O)[C@@H]([C@H](C)O)NC(=O)[C@@H](C)NC(=O)CNC(=O)[C@@H](CCCNC(=N)N)NC(=O)[C@H](N)CSSC[C@H](C(N)=O)NC(=O)[C@@H](CO)NC1=O [P10, CRGATPMSC] (H-[dC][dR]G[dA][dT][dP][dM][dS][dC]-NH2; disulfide 1-9) |  |  |  |  |  |  | >256 | 128 (≈ 139 µM) | >256 | 256 (≈ 278 µM) | 128 (≈ 139 µM) | 128 (≈ 139 µM) | >256 |
| CC[C@@H](C)[C@H]1NC(=O)[C@@H](CO)NC(=O)[C@H](N)CSSC[C@H](C(N)=O)NC(=O)[C@@H](Cc2c[nH]cn2)NC(=O)[C@@H]([C@H](C)O)NC(=O)[C@@H](CC(C)C)NC(=O)[C@@H](CO)NC(=O)[C@@H](CO)NC1=O [P11, CSISSLTHC] (H-[dC][dS][dI][dS][dS][dL][dT][dH][dC]-NH2; disulfide 1-9) | 32 (≈ 33.8 µM) | >256 | 32 (≈ 33.8 µM) | 64 (≈ 67.6 µM) | 32 (≈ 33.8 µM) | >256 | 64 (≈ 67.6 µM) |  |  |  |  |  |  |
| CC(C)C[C@H]1NC(=O)[C@H](N)CSSC[C@H](C(N)=O)NC(=O)[C@@H]([C@H](C)O)NC(=O)[C@@H](C)NC(=O)CNC(=O)[C@@H]([C@H](C)O)NC(=O)[C@@H](CO)NC(=O)[C@@H](Cc2c[nH]c3ccccc23)NC1=O [P12, CLWSTGATC] (H-[dC][dL][dW][dS][dT]G[dA][dT][dC]-NH2; disulfide 1-9) | 64 (≈ 68.2 µM) | >256 | 128 (≈ 136 µM) | 64 (≈ 68.2 µM) | 64 (≈ 68.2 µM) | >256 | >256 |  |  |  |  |  |  |
